Values joined by “and” are separate entries in the source; they are usually repeats but may differ in a detail not shown here. Equal entries are not always repeated. “Also recorded” adds a separate entry of the source. Where two headings read alike, the source gives them in different places.
What was measured:
TRPM8 = details: cited from earlier work
TRPV1 = test: whole-cell patch-clamp recording in response to a voltage ramp; format: cell-based
From the text: (b) Representative whole- cell patch- clamp recording of capsaicin activation of TRPV1 in response to a voltage ramp.

wild-type TRPM8 [1] = target: T1, wild-type TRPM8 (Mus musculus, UniProt Q8R4D5); test: whole-cell patch-clamp recording of ligand activation; format: cell-based
T1 construct: expressed in transfected cells; host or cells: HEK293T
Experimental: (§1) Murine TRPM8 was used in this study. Point mutations were made by Fast Mutagenesis Kit V2 (SBS Genetech). Primers used to generate point mutations are summarized in Supplementary Table 2.
Cells were transiently transfected with cDNA constructs by Lipofectamine 3000 (Life Technologies) following the manufacturer’s protocol. Patch-clamp recordings were performed 1–2 days after transfection.
(§2) Patch-clamp recordings were performed with a HEKA EPC10 amplifier controlled by PatchMaster software (HEKA). Whole-cell recordings were performed at ±80 mV. Patch pipettes were prepared from borosilicate glass and fire-polished to resistance of ~4 MΩ. For whole-cell recording, serial resistance was compensated by 60%. For single-channel recordings, patch pipettes were fire-polished to a higher resistance of 6-to-10 MΩ and then recorded in the inside-out configuration. To maximize the chance of obtaining a patch with only one channel, single-channel recordings were performed about 8 h after transfection. A solution with 130 mM NaCl, 10 mM glucose, 0.2 mM EDTA, and 3 mM HEPES (pH 7.2) was used in both bath and pipette for either whole-cell or single-channel recordings. Membrane potential was clamped at +80 mV for single-channel recordings. Current was sampled at 10 kHz and filtered at 2.9 kHz. All recordings were performed at room temperature (22 °C) with the maximum variation of 1 °C.
(§3) Ligands such as menthol and its analogs were perfused to membrane patch by a gravity-driven system (RSC-200, Bio-Logic). Bath and ligand solution were delivered through separate tubes to minimize the mixing of solutions. Patch pipette was placed in front of the perfusion tube outlet.
(§4) Data from whole-cell recordings were analyzed in Igor Pro version 6.1 (WaveMatrix). EC50 values were derived from fitting a Hill equation to the concentration–response relationship. […] To distinguish these possibilities, dissociation constant (Kd) for ligand binding was estimated assuming the following gating scheme:1 C0↔KdC1↔LO, where L is the equilibrium constant for the final closed-to-open transition.

TRPM8 Y745F = target: T2, TRPM8 Y745F (Mus musculus, UniProt Q8R4D5, Y745F); test: whole-cell patch-clamp and thermodynamic mutant cycle analysis; format: cell-based
T2 construct: expressed in transfected cells; host or cells: HEK293T
Experimental: Murine TRPM8 was used in this study. Point mutations were made by Fast Mutagenesis Kit V2 (SBS Genetech). Primers used to generate point mutations are summarized in Supplementary Table 2. All mutations were confirmed by sequencing.
(§5) HEK293T cells purchased from Kunming Cell Bank, Kunming Institute of Zoology, Chinese Academy of Sciences (ATCC, CRL-3216) were cultured in Dulbecco’s modified Eagle’s medium supplemented with 20 mM L-glutamine and 10% fetal bovine serum. Cells were transiently transfected with cDNA constructs by Lipofectamine 3000 (Life Technologies) following the manufacturer’s protocol. Patch-clamp recordings were performed 1–2 days after transfection.
as §2, §3
Data from whole-cell recordings were analyzed in Igor Pro version 6.1 (WaveMatrix). EC50 values were derived from fitting a Hill equation to the concentration–response relationship. Changes in EC50 by point mutation may be caused by either perturbation of ligand bind or channel gating or both. To distinguish these possibilities, dissociation constant (Kd) for ligand binding was estimated assuming the following gating scheme:1 C0↔KdC1↔LO, where L is the equilibrium constant for the final closed-to-open transition.
(§6) To perform thermodynamic cycle analysis, Kd values of four channel-ligand combinations (WT channel, menthol: Kd _1; Mutant channel, menthol: Kd _2; WT channel, menthol analog: Kd _3; Mutant channel, menthol analog: Kd _4) were determined separately. The strength of coupling was determined by the coupling energy (kT multiplied by LnΩ, where k is the Boltzmann constant and T is temperature in Kelvin). LnΩ was calculated by Eq. (2) as[51]2 LnΩ=LnKd_1⋅Kd_4/Kd_2⋅Kd_3.

TRPM8 D802I = target: T3, TRPM8 D802I (Mus musculus, UniProt Q8R4D5, D802I); test: as above; format: cell-based
T3 construct: expressed in transfected cells; host or cells: HEK293T
Experimental: as §1, §5, §2, §3, §4, §6

TRPM8 D802L = target: T4, TRPM8 D802L (Mus musculus, UniProt Q8R4D5, D802L); test: as above; format: cell-based
T4 construct: expressed in transfected cells; host or cells: HEK293T
Experimental: as §1, §5, §2, §3, §4, §6

TRPM8 D802S = target: T5, TRPM8 D802S (Mus musculus, UniProt Q8R4D5, D802S); test: as above; format: cell-based
T5 construct: expressed in transfected cells; host or cells: HEK293T
Experimental: as §1, §5, §2, §3, §4, §6

TRPM8 L797A = target: T6, TRPM8 L797A (Mus musculus, UniProt Q8R4D5, L797A); test: as above; format: cell-based
T6 construct: expressed in transfected cells; host or cells: HEK293T
Experimental: as §1, §5, §2, §3, §4, §6

TRPM8 R842K = target: T7, TRPM8 R842K (Mus musculus, UniProt Q8R4D5, R842K); test: as above; format: cell-based
T7 construct: expressed in transfected cells; host or cells: HEK293T
Experimental: as §1, §5, §2, §3, §4, §6

TRPM8 W798A = target: T8, TRPM8 W798A (Mus musculus, UniProt Q8R4D5, W798A); test: as above; format: cell-based
T8 construct: expressed in transfected cells; host or cells: HEK293T
Experimental: as §1, §5, §2, §3, §4, §6

TRPM8 Y1005F = target: T9, TRPM8 Y1005F (Mus musculus, UniProt Q8R4D5, Y1005F); test: as above; format: cell-based
T9 construct: expressed in transfected cells; host or cells: HEK293T
Experimental: as §1, §5, §2, §3, §4, §6

wild-type TRPM8 [2] = target: T1, wild-type TRPM8; test: open probability from noise analysis of macroscopic current and single-channel recordings; format: cell-based; details: wild-type TRPM8; near saturating concentration (menthol 500 µM)
Experimental: as §2
From single-channel recordings, the open probability (Po) was calculated after events detection with a hidden Markov approach in the software QuB[49] (http://www.qub.buffalo.edu/). A dead time of 0.32 ms was imposed. As a complementary approach, Po was also estimated from noise analysis[52] of whole-cell recordings. Briefly, the mean current amplitude (I), the squared deviations in current amplitude from the mean value (σ^2), and the single-channel current (i) were measured experimentally from a membrane patch of ion channels. Then the number of ion channels clamped in that patch (N) was determined as3 N=I^2/i⋅I−σ^2.
The maximum current when each of ion channel is at the open state with a Po of 1 is equal to i × N. Then the open probability was calculated as the ratio between the measured macroscopic current and the maximum current calculated by noise analysis. To estimate channel conductance, current amplitude was estimated from all-point histogram of single-channel recordings.

[3] = mutant cycle menthol vs labelled analog

T1 sequence (Q8R4D5 whole entry): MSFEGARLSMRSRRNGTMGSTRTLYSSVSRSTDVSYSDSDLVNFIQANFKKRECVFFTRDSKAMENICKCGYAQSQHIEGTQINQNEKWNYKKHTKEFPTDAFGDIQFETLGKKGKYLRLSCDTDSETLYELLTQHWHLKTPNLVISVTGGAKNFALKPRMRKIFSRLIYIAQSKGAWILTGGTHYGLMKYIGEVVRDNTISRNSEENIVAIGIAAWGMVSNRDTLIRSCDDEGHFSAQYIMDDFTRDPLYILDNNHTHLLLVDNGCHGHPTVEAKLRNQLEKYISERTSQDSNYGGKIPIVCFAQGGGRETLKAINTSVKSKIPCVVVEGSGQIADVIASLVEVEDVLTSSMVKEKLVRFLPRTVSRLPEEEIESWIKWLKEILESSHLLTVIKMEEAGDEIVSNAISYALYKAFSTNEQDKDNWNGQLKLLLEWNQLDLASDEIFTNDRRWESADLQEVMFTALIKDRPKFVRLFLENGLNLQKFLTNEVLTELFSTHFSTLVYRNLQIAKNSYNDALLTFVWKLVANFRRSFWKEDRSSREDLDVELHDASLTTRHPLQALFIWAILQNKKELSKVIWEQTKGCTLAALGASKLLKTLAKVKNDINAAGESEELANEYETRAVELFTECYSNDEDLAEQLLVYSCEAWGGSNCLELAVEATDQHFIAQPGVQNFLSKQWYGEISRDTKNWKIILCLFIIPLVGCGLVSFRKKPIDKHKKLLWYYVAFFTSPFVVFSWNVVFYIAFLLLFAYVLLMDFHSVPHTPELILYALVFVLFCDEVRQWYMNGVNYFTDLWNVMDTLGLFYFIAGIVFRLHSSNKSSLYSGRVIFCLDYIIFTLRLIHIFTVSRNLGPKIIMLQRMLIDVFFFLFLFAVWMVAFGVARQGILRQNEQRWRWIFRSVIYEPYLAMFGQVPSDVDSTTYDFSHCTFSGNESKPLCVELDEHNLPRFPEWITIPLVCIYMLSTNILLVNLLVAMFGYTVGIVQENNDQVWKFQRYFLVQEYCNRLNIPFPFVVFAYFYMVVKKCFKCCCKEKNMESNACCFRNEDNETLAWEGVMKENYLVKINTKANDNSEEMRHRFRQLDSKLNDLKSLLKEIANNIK
T7 sequence (Q8R4D5 whole entry R842K): as the sequence (Q8R4D5 whole entry) above, with R842K counted along it
T6 sequence (Q8R4D5 whole entry L797A): as the sequence (Q8R4D5 whole entry) above, with L797A counted along it
T2 sequence (Q8R4D5 whole entry Y745F): as the sequence (Q8R4D5 whole entry) above, with Y745F counted along it
T3 sequence (Q8R4D5 whole entry D802I): as the sequence (Q8R4D5 whole entry) above, with D802I counted along it
T9 sequence (Q8R4D5 whole entry Y1005F): as the sequence (Q8R4D5 whole entry) above, with Y1005F counted along it
T8 sequence (Q8R4D5 whole entry W798A): as the sequence (Q8R4D5 whole entry) above, with W798A counted along it
T4 sequence (Q8R4D5 whole entry D802L): as the sequence (Q8R4D5 whole entry) above, with D802L counted along it
T5 sequence (Q8R4D5 whole entry D802S): as the sequence (Q8R4D5 whole entry) above, with D802S counted along it

For C[C@H](c1ccc(F)cc1)N(Cc1cccc(C(=O)O)c1)C(=O)c1cnc2ccccc2c1 [PF-05105679], the “effect on cold-related pain” value (TRPM8) is listed as “effectively suppress cold-related pain” and the “temperature sensation (side effect)” value (TRPM8; patients, clinical trials) is listed as “side effects of altering temperature sensation; also recorded: altered temperature sensation in patients”.

With COc1cc(CNC(=O)CCCC/C=C/C(C)C)ccc1O [capsaicin] the “effect of deep hyperpolarization on ligand-activated channel” value (TRPV1) was “not antagonized”.

With CC(C)[C@@H]1CC[C@@H](C)CC1=O [menthone, (−)-menthone] the “L (equilibrium constant between closed and open states upon ligand binding), Ave” value (wild-type TRPM8 [1]; WT) was 0.9574, the “L, single recording” value (wild-type TRPM8 [1]; WT) was 1.13 and 1.132 and 0.6097 and the “Ratio X1 (Kd menthol / Kd labelled analog)” value (wild-type TRPM8 [1]; WT) was 0.62. The “concentration–response curve value, ave” value (wild-type TRPM8 [1]; WT, 100 microM) was 0.02705, the “concentration–response curve value, single recording” value (wild-type TRPM8 [1]; WT, 100 microM) was 0.02655 and 0.02755 and the “concentration–response curve value, ave” value (wild-type TRPM8 [1]; WT, 700 microM) was 0.1118. The “concentration–response curve value, single recording” value (wild-type TRPM8 [1]; WT, 700 microM) was 0.1118, the “concentration–response curve value, ave” value (wild-type TRPM8 [1]; WT, 800 microM) was 0.223 and the “concentration–response curve value, ave” value (wild-type TRPM8 [1]; WT, 1000 microM) was 0.4153. The “concentration–response curve value, single recording” value (wild-type TRPM8 [1]; WT, 1000 microM) was 0.3958 and 0.4096 and 0.4406, the “concentration–response curve value, ave” value (wild-type TRPM8 [1]; WT, 5000 microM) was 0.5864 and the “concentration–response curve value, single recording” value (wild-type TRPM8 [1]; WT, 5000 microM) was 0.584 and 0.6851 and 0.4903. For the same compound, the “concentration–response curve value, ave” value (wild-type TRPM8 [1]; WT, 10000 microM) was 0.596, the “concentration–response curve value, single recording” value (wild-type TRPM8 [1]; WT, 10000 microM) was 0.562 and 0.63 and the Kd (wild-type TRPM8 [1]; WT, read-out: Kd, single recording) was 1400 µM and 2020 µM and 1340 µM. The EC50 (wild-type TRPM8 [1]; wild-type TRPM8, Hill equation fit of concentration–response, patch-clamp) was 813 ± 84.3 µM, the “Ratio X2 (Kd menthol / Kd labelled analog)” value (TRPM8 Y745F) was 1.11 and the “Omega(X1/X2)” value (TRPM8 Y745F; menthol vs labelled analog) was 0.56. The “Coupling Energy” value (TRPM8 Y745F; [3]) was 0.59 kT, the “Ratio X2 (Kd menthol / Kd labelled analog)” value (TRPM8 D802I) was 1.35 and the “Omega(X1/X2)” value (TRPM8 D802I; menthol vs labelled analog) was 0.46. For the same compound, the “Coupling Energy” value (TRPM8 D802I; [3]) was 0.78 kT, the “Ratio X2 (Kd menthol / Kd labelled analog)” value (TRPM8 D802L) was 3.06 and the “Omega(X1/X2)” value (TRPM8 D802L; menthol vs labelled analog) was 0.20. For the same compound, the “Coupling Energy” value (TRPM8 D802L; [3]) was 1.60 kT, the “Ratio X2 (Kd menthol / Kd labelled analog)” value (TRPM8 D802S) was 2.58 and the “Omega(X1/X2)” value (TRPM8 D802S; menthol vs labelled analog) was 0.24. For the same compound, the “Coupling Energy” value (TRPM8 D802S; [3]) was 1.42 kT, the “Ratio X2 (Kd menthol / Kd labelled analog)” value (TRPM8 L797A) was 1.22 and the “Omega(X1/X2)” value (TRPM8 L797A; menthol vs labelled analog) was 0.51. The “Coupling Energy” value (TRPM8 L797A; [3]) was 0.67 kT, the “L (equilibrium constant between closed and open states upon ligand binding), Ave” value (TRPM8 R842K) was 0.246 and the “Ratio X2 (Kd menthol / Kd labelled analog)” value (TRPM8 R842K) was 4.90. For the same compound, the “concentration–response curve value, ave” value (TRPM8 R842K; 800 microM) was 0.04014, the “concentration–response curve value, single recording” value (TRPM8 R842K; 800 microM) was 0.05631 and 0.03329 and 0.03847 and 0.03248 and the “concentration–response curve value, ave” value (TRPM8 R842K; 1000 microM) was 0.05391. The “concentration–response curve value, single recording” value (TRPM8 R842K; 1000 microM) was 0.07259 and 0.05411 and 0.04679 and 0.04215, the “concentration–response curve value, ave” value (TRPM8 R842K; 5000 microM) was 0.1385 and the Kd (TRPM8 R842K; calculated from concentration–response curves, read-out: Kd, Ave) was 1780 µM. The “Omega(X1/X2)” value (TRPM8 R842K; menthol vs labelled analog) was 0.13, the “Coupling Energy” value (TRPM8 R842K; [3]) was 2.07 kT and the Kd (TRPM8 R842K; read-out: Kd, single recording) was 1120 µM and 2990 µM and 1510 µM and 1500 µM. For the same compound, the “Ratio X2 (Kd menthol / Kd labelled analog)” value (TRPM8 W798A) was 0.21, the “Omega(X1/X2)” value (TRPM8 W798A; menthol vs labelled analog) was 2.89 and the “Coupling Energy” value (TRPM8 W798A; [3]) was 1.06 kT. For the same compound, the “Ratio X2 (Kd menthol / Kd labelled analog)” value (TRPM8 Y1005F) was 0.15, the “Omega(X1/X2)” value (TRPM8 Y1005F; menthol vs labelled analog) was 4.12 and the “Coupling Energy” value (TRPM8 Y1005F; [3]) was 1.42 kT. For the same compound, the “maximum open probability (Po max)” value (wild-type TRPM8 [2]) was 0.48 ± 0.05.

From paper PMC7391767, “Molecular mechanisms underlying menthol binding and activation of TRPM8 ion channel” (Nature Communications, 2020)
